Some test systems named below: A549 NSCLC; ACHN renal; HL-60(TB) leukemia; HOP-62 NSCLC; HOP-92 NSCLC; LOX IMVI melanoma; MDA-MB-231 breast; OVCAR-4 ovarian; SF-268 CNS; SF-539 CNS; SR leukemia.
Common to all, as to experiment: growth of human tumour cells (NCI), 48 h

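A five-concentration, 48-hour dose response in 96-well plates underlies each endpoint, interpolated linearly between surrounding concentrations. TGI: concentration producing complete growth inhibition.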

On to `O=C1c2cc(Cc3ccccc3)c(=O)c(Cc3ccccc3)cc2C(=O)c2cc(Cc3ccccc3)c(=O)c(Cc3ccccc3)cc21`, for which the TGI in the test with A549 NSCLC, in the test on ACHN renal, with HL-60(TB) leukemia, in the test on HOP-62 NSCLC, with HOP-92 NSCLC and in the test on LOX IMVI melanoma was above 100 µM in each case. Besides, the TGI in the test with MDA-MB-231 breast, in the test with OVCAR-4 ovarian, with SF-268 CNS, with SF-539 CNS and with SR leukemia was above 100 µM each time.
On to `O=C1COc2cc(N3CCN(c4cccc(C(F)(F)F)c4)CC3)ccc2N1`, for which the TGI with A549 NSCLC, in the test with ACHN renal, in the test on HL-60(TB) leukemia, with HOP-62 NSCLC, in the test with HOP-92 NSCLC and in the test on LOX IMVI melanoma was above 100 µM throughout. Also, the TGI in the test with MDA-MB-231 breast, with OVCAR-4 ovarian, with SF-268 CNS, in the test with SF-539 CNS and in the test with SR leukemia was above 100 µM throughout.
Consider `FC(F)(F)c1cc(N(C2c3ccccc3C=Cc3ccccc32)P(Cl)Cl)cc(C(F)(F)F)c1`, for which the TGI in the test on A549 NSCLC was 44.1 µM; in the test with ACHN renal it was 33.9 µM; in the test with HL-60(TB) leukemia, 81.6 µM; in the test with HOP-62 NSCLC, 37.3 µM; with HOP-92 NSCLC, 30.4 µM; in the test on LOX IMVI melanoma it was 36.1 µM. The TGI was found to be 35 µM with MDA-MB-231 breast; 42.9 µM in the test with OVCAR-4 ovarian; 33.8 µM in the test on SF-268 CNS; 66.6 µM with SF-539 CNS; 46.9 µM with SR leukemia.
Regarding `C/C=C(\C)C(=O)OC1CC(OC(C)=O)C2(C(=O)OC)COC3C2C1(C)C1C2(C(=O)OC)OCC1(C3O)C1(O)C3CC(C4(O)C=COC4O3)C1(C)O2` (configuration not stated), the TGI in the test on A549 NSCLC, in the test with ACHN renal, with HL-60(TB) leukemia, in the test with HOP-62 NSCLC, in the test with HOP-92 NSCLC and in the test on LOX IMVI melanoma was above 100 µM each time. The TGI in the test with MDA-MB-231 breast, in the test with OVCAR-4 ovarian, in the test on SF-268 CNS, in the test on SF-539 CNS and in the test with SR leukemia was above 100 µM in each case.
As for `Cn1cccc1-c1ccc(-c2ccc(CO)[se]2)[se]1`, the TGI with A549 NSCLC was above 100 µM; in the test on ACHN renal it was above 100 µM; in the test on HL-60(TB) leukemia, 18.9 µM; with HOP-62 NSCLC, above 88.1 µM; with HOP-92 NSCLC, above 100 µM; with LOX IMVI melanoma, above 70.6 µM. Moreover, the TGI in the test on MDA-MB-231 breast was above 79.8 µM; in the test on OVCAR-4 ovarian, 53.8 µM; in the test with SF-268 CNS, above 100 µM; in the test on SF-539 CNS it was above 82.9 µM; in the test on SR leukemia, 56.9 µM.
`O=C(c1ccccc1)c1ccc2nc(-c3c(Cl)c(Cl)c(Cl)c(Cl)c3-c3nnc(-c4ccccc4)o3)[nH]c2c1`: the TGI with A549 NSCLC, in the test on ACHN renal, in the test on HL-60(TB) leukemia, in the test with HOP-62 NSCLC, in the test on HOP-92 NSCLC and in the test on LOX IMVI melanoma was above 100 µM throughout. The TGI in the test on MDA-MB-231 breast is above 100 µM; in the test on OVCAR-4 ovarian, above 100 µM; in the test with SF-268 CNS, above 100 µM; in the test on SF-539 CNS, above 100 µM; in the test with SR leukemia, 50.2 µM.
Consider `COC(=O)c1ccccc1C1CN=NC12Cc1c(ccc3c1CCC3)C2=O` (configuration not stated), for which the TGI with A549 NSCLC is above 100 µM; in the test with ACHN renal, above 100 µM; with HL-60(TB) leukemia, 59.3 µM; in the test with HOP-62 NSCLC, above 100 µM; with HOP-92 NSCLC, above 100 µM; in the test on LOX IMVI melanoma it was 60.4 µM. In addition, the TGI in the test on MDA-MB-231 breast, in the test with OVCAR-4 ovarian, in the test with SF-268 CNS, in the test with SF-539 CNS and in the test on SR leukemia was above 100 µM throughout.
Consider `Cc1cn(C2CCC(CO)(CF)O2)c(=O)[nH]c1=O` (configuration not stated), for which the TGI with A549 NSCLC, with ACHN renal, in the test with HL-60(TB) leukemia, in the test on HOP-62 NSCLC, with HOP-92 NSCLC and in the test on LOX IMVI melanoma was above 100 µM each time. Also, the TGI with MDA-MB-231 breast, in the test with OVCAR-4 ovarian, in the test on SF-268 CNS, with SF-539 CNS and with SR leukemia was above 100 µM in each case.
With `Cc1ccc(S(=O)(=O)NC(CCC(=O)NNc2ccccc2)C(=O)NNc2ccccc2)cc1` (configuration not stated), the TGI was 48.8 µM with A549 NSCLC; above 100 µM with ACHN renal; above 100 µM in the test on HL-60(TB) leukemia; above 100 µM in the test on HOP-62 NSCLC; above 100 µM in the test with HOP-92 NSCLC; above 100 µM with LOX IMVI melanoma. The TGI in the test on MDA-MB-231 breast is above 100 µM; with OVCAR-4 ovarian it was 99.2 µM; with SF-268 CNS it was above 100 µM; with SF-539 CNS it was above 100 µM; with SR leukemia, above 100 µM.
Turning to `N#Cc1c(-c2ccc(Cl)cc2)cc(-c2ccc(Nc3ccnc4cc(Cl)ccc34)cc2)[nH]c1=O`, the TGI in the test with A549 NSCLC is above 100 µM; in the test with ACHN renal it was above 85.4 µM; with HL-60(TB) leukemia it was above 100 µM; with HOP-62 NSCLC, above 62.8 µM; in the test on HOP-92 NSCLC, 61.2 µM; with LOX IMVI melanoma it was above 100 µM. Also, the TGI in the test on MDA-MB-231 breast was above 67.4 µM; in the test on OVCAR-4 ovarian, above 100 µM; with SF-268 CNS, above 100 µM; in the test with SF-539 CNS, above 100 µM; in the test with SR leukemia it was above 100 µM.
Take `COc1cc2cc(C(=O)N3CC(COS(C)(=O)=O)c4ccc(NC(=O)OCc5ccccc5)cc43)[nH]c2c(OC)c1OC` (configuration not stated): the TGI in the test with A549 NSCLC, in the test with ACHN renal, with HL-60(TB) leukemia, in the test on HOP-62 NSCLC, in the test with HOP-92 NSCLC and with LOX IMVI melanoma was above 100 µM throughout. Also, the TGI in the test on MDA-MB-231 breast, in the test with OVCAR-4 ovarian, in the test on SF-268 CNS, with SF-539 CNS and in the test with SR leukemia was above 100 µM throughout.
With `Nc1ccc(-c2nc3ccccc3s2)cc1Cl`, the TGI is above 100 µM in the test with A549 NSCLC; above 100 µM in the test with ACHN renal; above 100 µM with HL-60(TB) leukemia; 72.8 µM with HOP-62 NSCLC; above 100 µM in the test on HOP-92 NSCLC; above 100 µM in the test with LOX IMVI melanoma. Moreover, the TGI in the test with MDA-MB-231 breast, in the test with OVCAR-4 ovarian, in the test with SF-268 CNS, in the test with SF-539 CNS and in the test on SR leukemia was above 100 µM throughout.

The values are drawn from PubChem BioAssay (NCI).
